Source: PubChem BioAssay AID1919004 (Molecular Pharmacology Branch, DTP, NCI, 2023)

Test system: 883617-216-R-J1-PDC complex spheroids, growth, % test/control
Assay: Anticancer human tumor 883617-216-R-J1-PDC patient-derived bladder carcinoma cell line growth inhibition [AhR]
Settings: for IC50: curve of first compound; for viability, T/C: stronger effect = lower value
Excerpt: Multicellular complex tumor spheroid response to aryl hydrocarbon receptor antagonists in combination with a variety of drugs and investigational agents in selected tumor cell lines
The current study was undertaken to assess response to aryl hydrocarbon receptor antagonists in combination with standard-of-care drugs and investigational agents in solid tumor complex spheroid models. Complex spheroids include a stromal component modeled by human endothelial cells (HUVEC) and fibroblasts modeled by human mesenchymal stem cells (MSCs). The concentration ranges selected for each drug and investigational agent were based upon clinically achievable concentrations if the clinical Cmax of the agent was known.
Compounds. The drugs and investigational agents: BAY 2416964 (NSC825713), GNF351 (NSC835774), CH-223191 (NSC835775), CPI-455 (NSC825282), aza-TdCyd (NSC777586), decitabine (NSC127716), belinostat (NSC758774), entinostat (NSC756642), pevonedistat (NSC761192), tazemetostat (NSC777109), talazoparib (NSC765396), olaparib (NSC753686), selinexor (NSC780203), nedisertib (M3814, NSC802822), bortezomib (NSC756655), venetoclax (NSC766270), doxorubicin (NSC123127), elimusertib (BAY189344, NSC800525), ceralasertib (AZD6738, NSC777638), TAK-243 (NSC785004), alisertib (NSC759677), etoposide (NSC141540), topotecan (NSC609699), eribulin (NSC707389), gemcitabine (NSC613327), carboplatin (NSC241240), cisplatin (NSC119875), and SN-38 (NSC673596) were obtained from the National Cancer Institute (NCI) Developmental Therapeutics Program Chemical Repository (32). The FDA-approved anticancer drug set is available from the Developmental Therapeutics Program at https://dtp.cancer.gov/organization/dscb/obtaining/available plates.htm. […] The stock solutions were prepared in dimethyl sulfoxide (DMSO, Sigma-Aldrich, St. Louis, MO, cat. D2650), except for the platinum compounds which were prepared in saline (Quality Biological, Gaithersburg, MD, cat. 114-055-101), at 800-fold the tested concentration and stored at -70 degrees C prior to their use. All drugs and investigational agents were tested over a range starting from a high concentration at or near the clinical Cmax and decreasing in half-log increments. If the clinical Cmax for an agent had not been determined, the highest concentration tested was 10 microM (Table 1).
Cell Culture. All cells were maintained in an incubator at 37 degrees C and 5% CO2 with 95% humidity. The PDC lines were cultured according to standard operating procedures established by the NCI PDMR (https://pdmr.cancer.gov). Briefly, all PDCs were thawed and cultured in Matrigel-coated flasks prepared with a working solution of 1X Ham's F-12 nutrient mix, without supplementation (Invitrogen, Waltham, MA, cat. 11765054), 100 U/mL penicillin-streptomycin (Invitrogen, cat. 15140122), and 2.5% Matrigel (Corning Inc., Corning, NY, cat. 354248) for the first three passages. All PDCs were cultured in complete DMEM/F-12 media containing advanced DMEM/F-12 (Invitrogen, cat. 12634028), 4.9% defined fetal bovine serum, heat inactivated (HyClone Laboratories Inc., Logan, UT, cat. SH30070.03HI), 389 ng/mL hydrocortisone (Sigma-Aldrich, cat. H4001), 9.7 ng/mL human EGF recombinant protein (Invitrogen, cat. PHG0313), 23.4 microg/mL adenine (Sigma-Aldrich, cat. A2786), 97.3 U/mL penicillin-streptomycin (Invitrogen, cat. 15140122), 1.9 mM L-glutamine (Invitrogen, cat. 25030081), and 9.7 microM Y-27632 dihydrochloride (Tocris Bioscience, Bristol, United Kingdom, cat. 1254). The PDCs were cultured in complete DMEM/F12 media without 10 microM Y-27632 dihydrochloride for at least two passages prior to the screen. The established cell lines NCI-H1341 and […] were cultured in DMEM/F-12, HEPES (Invitrogen, cat. 11330032), 5% defined fetal bovine serum (HyClone Laboratories Inc., cat. SH30070.03), ITS premix universal culture supplement [insulin (5 microg/mL), transferrin (5 microg/mL), and selenious acid (5 ng/mL)] […]

[1] = second compound 0.1 µM, first compound 0.00316 µM
[2] = second compound 0.1 µM, first compound 0.01 µM
[3] = second compound 0.1 µM, first compound 0.0316 µM
[4] = second compound 0.1 µM, first compound 0.1 µM
[5] = second compound 0.316 µM, first compound 0.00316 µM
[6] = second compound 0.316 µM, first compound 0.01 µM
[7] = second compound 0.316 µM, first compound 0.0316 µM
[8] = second compound 0.316 µM, first compound 0.1 µM
[9] = second compound 1 µM, first compound 0.00316 µM
[10] = second compound 1 µM, first compound 0.01 µM
[11] = second compound 1 µM, first compound 0.0316 µM
[12] = second compound 1 µM, first compound 0.1 µM
[13] = second compound 3.16 µM, first compound 0.00316 µM
[14] = second compound 3.16 µM, first compound 0.01 µM
[15] = second compound 3.16 µM, first compound 0.0316 µM
[16] = second compound 3.16 µM, first compound 0.1 µM
[17] = second compound 10 µM, first compound 0.00316 µM
[18] = second compound 10 µM, first compound 0.01 µM
[19] = second compound 10 µM, first compound 0.0316 µM
[20] = second compound 10 µM, first compound 0.1 µM
[21] = second compound 0.1 µM, first compound 0.316 µM
[22] = second compound 0.1 µM, first compound 1 µM
[23] = second compound 0.1 µM, first compound 3.16 µM
[24] = second compound 0.1 µM, first compound 10 µM
[25] = second compound 0.316 µM, first compound 0.316 µM
[26] = second compound 0.316 µM, first compound 1 µM
[27] = second compound 0.316 µM, first compound 3.16 µM
[28] = second compound 0.316 µM, first compound 10 µM
[29] = second compound 1 µM, first compound 0.316 µM
[30] = second compound 1 µM, first compound 1 µM
[31] = second compound 1 µM, first compound 3.16 µM
[32] = second compound 1 µM, first compound 10 µM
[33] = second compound 3.16 µM, first compound 0.316 µM
[34] = second compound 3.16 µM, first compound 1 µM
[35] = second compound 3.16 µM, first compound 3.16 µM
[36] = second compound 3.16 µM, first compound 10 µM
[37] = second compound 10 µM, first compound 0.316 µM
[38] = second compound 10 µM, first compound 1 µM
[39] = second compound 10 µM, first compound 3.16 µM
[40] = second compound 10 µM, first compound 10 µM
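Note: exposure lasted 7 days after dosing on day 3 of spheroid growth.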

CC[C@@]1(O)C(=O)OCc2c1cc1n(c2=O)Cc2cc3c(CN(C)C)c(O)ccc3nc2-1 + CC(CO)NC(=O)c1cc(-c2ccc(Cl)cc2)nn(-c2cnn(C)c2)c1=O
IC50 (second compound 0.1 µM): > 100 nM
IC50 (second compound 0.316 µM): > 100 nM
IC50 (second compound 1 µM): > 100 nM
IC50 (second compound 3.16 µM): > 100 nM
IC50 (second compound 10 µM): > 100 nM
viability, T/C (second compound 0.1 µM, first compound 0.000316 µM): 66.5%
viability, T/C (second compound 0.1 µM, first compound 0.001 µM): 93.5%
viability, T/C [1]: 102%
viability, T/C [2]: 52.4%
viability, T/C [3]: 82.2%
viability, T/C [4]: 78.4%
viability, T/C (second compound 0.316 µM, first compound 0.000316 µM): 87.9%
viability, T/C (second compound 0.316 µM, first compound 0.001 µM): 100%
viability, T/C [5]: 103%
viability, T/C [6]: 104%
viability, T/C [7]: 117%
viability, T/C [8]: 118%
viability, T/C (second compound 1 µM, first compound 0.000316 µM): 81.3%
viability, T/C (second compound 1 µM, first compound 0.001 µM): 78%
viability, T/C [9]: 107%
viability, T/C [10]: 58.3%
viability, T/C [11]: 62%
viability, T/C [12]: 97%
viability, T/C (second compound 3.16 µM, first compound 0.000316 µM): 73.7%
viability, T/C (second compound 3.16 µM, first compound 0.001 µM): 104%
viability, T/C [13]: 63.6%
viability, T/C [14]: 81.9%
viability, T/C [15]: 95.5%
viability, T/C [16]: 70.5%
viability, T/C (second compound 10 µM, first compound 0.000316 µM): 88.1%
viability, T/C (second compound 10 µM, first compound 0.001 µM): 95%
viability, T/C [17]: 80.5%
viability, T/C [18]: 66.4%
viability, T/C [19]: 113%
viability, T/C [20]: 112%

COc1cc(C2c3cc4c(cc3C(OC3OC5COC(C)OC5C(O)C3O)C3COC(=O)C23)OCO4)cc(OC)c1O (stereo not given) + CC(CO)NC(=O)c1cc(-c2ccc(Cl)cc2)nn(-c2cnn(C)c2)c1=O
IC50 (second compound 0.1 µM): > 10000 nM
IC50 (second compound 0.316 µM): > 10000 nM
IC50 (second compound 1 µM): > 10000 nM
IC50 (second compound 3.16 µM): > 10000 nM
IC50 (second compound 10 µM): > 10000 nM
viability, T/C [3]: 75.2%
viability, T/C [4]: 90.2%
viability, T/C [21]: 108%
viability, T/C [22]: 66.3%
viability, T/C [23]: 84.1%
viability, T/C [24]: 60.1%
viability, T/C [7]: 63.8%
viability, T/C [8]: 84.5%
viability, T/C [25]: 85.3%
viability, T/C [26]: 67.7%
viability, T/C [27]: 101%
viability, T/C [28]: 69.4%
viability, T/C [11]: 60.3%
viability, T/C [12]: 76.7%
viability, T/C [29]: 90%
viability, T/C [30]: 83.5%
viability, T/C [31]: 84.3%
viability, T/C [32]: 53.3%
viability, T/C [15]: 81.1%
viability, T/C [16]: 85.8%
viability, T/C [33]: 74.3%
viability, T/C [34]: 69.3%
viability, T/C [35]: 65%
viability, T/C [36]: 102%
viability, T/C [19]: 91.7%
viability, T/C [20]: 70.8%
viability, T/C [37]: 89.6%
viability, T/C [38]: 81.3%
viability, T/C [39]: 53.5%
viability, T/C [40]: 77.3%

COc1cccc2c1C(=O)c1c(O)c3c(c(O)c1C2=O)CC(O)(C(=O)CO)CC3OC1CC(N)C(O)C(C)O1 (stereo not given) + CC(CO)NC(=O)c1cc(-c2ccc(Cl)cc2)nn(-c2cnn(C)c2)c1=O
IC50 (second compound 0.1 µM): 269 nM
IC50 (second compound 0.316 µM): 456 nM
IC50 (second compound 1 µM): 501 nM
IC50 (second compound 3.16 µM): 230 nM
IC50 (second compound 10 µM): 167 nM
viability, T/C [3]: 115%
viability, T/C [4]: 116%
viability, T/C [21]: 39.2%
viability, T/C [22]: 4.71%
viability, T/C [23]: 2.59%
viability, T/C [24]: 1.67%
viability, T/C [7]: 90.5%
viability, T/C [8]: 94.2%
viability, T/C [25]: 70.9%
viability, T/C [26]: 4.94%
viability, T/C [27]: 5.79%
viability, T/C [28]: 4.67%
viability, T/C [11]: 95.2%
viability, T/C [12]: 93.9%
viability, T/C [29]: 82.1%
viability, T/C [30]: 1.75%
viability, T/C [31]: 2.44%
viability, T/C [32]: 1.47%
viability, T/C [15]: 91.5%
viability, T/C [16]: 107%
viability, T/C [33]: 31.2%
viability, T/C [34]: 3.13%
viability, T/C [35]: 3.56%
viability, T/C [36]: 0.65%
viability, T/C [19]: 113%
viability, T/C [20]: 65.8%
viability, T/C [37]: 32.6%
viability, T/C [38]: 1.76%
viability, T/C [39]: 1.75%
viability, T/C [40]: 1.1%

Nc1ncn(C2CC(O)C(CO)O2)c(=O)n1 (stereo not given) + CC(CO)NC(=O)c1cc(-c2ccc(Cl)cc2)nn(-c2cnn(C)c2)c1=O
IC50 (second compound 0.1 µM): > 1000 nM
IC50 (second compound 0.316 µM): > 1000 nM
IC50 (second compound 1 µM): > 1000 nM
IC50 (second compound 3.16 µM): > 1000 nM
IC50 (second compound 10 µM): > 1000 nM
viability, T/C [1]: 101%
viability, T/C [2]: 79.9%
viability, T/C [3]: 76.8%
viability, T/C [4]: 72.5%
viability, T/C [21]: 81.7%
viability, T/C [22]: 82.3%
viability, T/C [5]: 67.2%
viability, T/C [6]: 90.2%
viability, T/C [7]: 101%
viability, T/C [8]: 76.4%
viability, T/C [25]: 71.7%
viability, T/C [26]: 89.7%
viability, T/C [9]: 90.7%
viability, T/C [10]: 60.6%
viability, T/C [11]: 78.8%
viability, T/C [12]: 72.1%
viability, T/C [29]: 75.1%
viability, T/C [30]: 78.8%
viability, T/C [13]: 83.3%
viability, T/C [14]: 61.1%
viability, T/C [15]: 81%
viability, T/C [16]: 76.8%
viability, T/C [33]: 56.8%
viability, T/C [34]: 78.1%
viability, T/C [17]: 59%
viability, T/C [18]: 84.8%
viability, T/C [19]: 115%
viability, T/C [20]: 93.1%
viability, T/C [37]: 75.7%
viability, T/C [38]: 81.2%
